# Data as given in publication PMC12881670, “Investigation into ligand selectivity and bias at the formyl peptide receptor family” (The Journal of Pharmacology and Experimental Therapeutics, 2025).
# Legend:
# [1] = biological target: T1, Mm_Fpr1 (Mus musculus, UniProt P33766); assay: BRET receptor-RLuc8 interaction with Arrestin 3-YFP; assay type: cell-based
# T1 construct: expressed in transfected cells
# T1 sequence (P33766 1-364): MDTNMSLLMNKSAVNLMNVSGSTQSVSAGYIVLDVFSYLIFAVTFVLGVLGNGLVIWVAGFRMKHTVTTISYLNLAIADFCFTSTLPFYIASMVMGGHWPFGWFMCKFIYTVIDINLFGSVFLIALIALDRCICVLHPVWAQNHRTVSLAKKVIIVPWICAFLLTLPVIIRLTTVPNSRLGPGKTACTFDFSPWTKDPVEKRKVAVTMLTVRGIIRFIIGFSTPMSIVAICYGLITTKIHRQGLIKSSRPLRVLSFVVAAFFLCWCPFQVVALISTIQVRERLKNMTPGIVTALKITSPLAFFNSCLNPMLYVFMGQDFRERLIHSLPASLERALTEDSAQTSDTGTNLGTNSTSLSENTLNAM
# Method: (§1) BRET1 assays to measure FPR interaction with Venus-mGsi and Arrestin 3-yellow fluorescent protein (YFP) were performed as previously described.[31]^,[32] Briefly, all FPRs C-terminally fused to Renilla Luciferase (donor, RLuc8) were transiently transfected along with either Venus-mGsi or YFP-Arrestin 3 (acceptor) at a ratio of 1:4. 24 hours post transfection, cells were replated into white-walled, 96-well plates and cultured for a further 24–48 hours. On the day of experimentation, growth media was aspirated and replaced with 80 μl Hanks Buffered Saline Solution and equilibrated for 30 minutes. Coelenterazine h was added to each well to a final concentration of 5 μM for 5 minutes before the addition of each compound, and the plate was incubated for a further 10 minutes at 37 °C before being read on a ClarioStar Plus, with luminescence measured at 480/20 nm (donor) and 530/20 (acceptor). The BRET ratio (acceptor/donor) was determined, and the background (untreated) subtracted to give the N-BRET value.
# (§2) All data were analyzed using GraphPad Prism using the nonlinear regression log(agonist) versus response (3 parameters) function for all assays, except binding, which was analyzed using the One site-FitlogIC50 function. Bias calculations were carried out following IUPHAR guidelines as described,[27]^,[37] and data were presented as the Δ Activity ratio (Log[EmaxB/EC50B])-(Log[EmaxA/EC50A]).
# [2] = biological target: T2, Mm_Fpr2 (Mus musculus, UniProt O88536); assay: as above; assay type: cell-based
# T2 construct: expressed in transfected cells
# T2 sequence (O88536 1-351): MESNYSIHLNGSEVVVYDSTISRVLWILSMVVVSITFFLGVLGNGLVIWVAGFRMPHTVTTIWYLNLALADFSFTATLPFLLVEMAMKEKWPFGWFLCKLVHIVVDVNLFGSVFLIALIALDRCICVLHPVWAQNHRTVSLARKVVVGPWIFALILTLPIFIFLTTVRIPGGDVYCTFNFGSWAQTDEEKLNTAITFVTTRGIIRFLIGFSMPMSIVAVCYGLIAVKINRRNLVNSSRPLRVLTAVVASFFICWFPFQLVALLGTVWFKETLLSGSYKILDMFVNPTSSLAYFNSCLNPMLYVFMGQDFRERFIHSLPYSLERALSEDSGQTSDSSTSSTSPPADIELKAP
# Method: as §1, §2
# [3] = biological target: T1, Mm_Fpr1; assay: ERK1/2 phosphorylation by Western blotting; assay type: cell-based
# Method: (§3) ERK phosphorylation was detected by Western blotting as previously described.[30] Briefly, HEK293 cells stably expressing FLAG-tagged FPRs were plated into 12-well culture plates until 90% confluent. On the day of the experiment, culture media was replaced with serum-free Dulbecco’s modified Eagle’s medium and incubated for 2 hours before stimulation with the indicated compounds. After 7 minutes, the media was removed and stimulation terminated by the addition of 100 μl sample buffer (0.5% SDS, Tris (pH 6.8), glycerol, at >90 °C).
# as §2
# [4] = biological target: T2, Mm_Fpr2; assay: ERK1/2 phosphorylation by Western blotting; assay type: cell-based; conditions: mean, ND = no pERK signal detected
# Method: as §3, §2
# [5] = biological target: T1, Mm_Fpr1; assay: Internalization of FLAG-tagged receptors by flow cytometry; assay type: cell-based; set-up: Emax: dose or concentration left out as unconfirmed
# Method: (§4) Internalization of FPRs was measured by flow cytometry.[30] Briefly, cells were incubated with Alexa Fluor 657 conjugated M1 antiflag antibody (Sigma-Aldrich Cat# F3040, RRID:AB_439712) for 30 minutes at 37 °C to label surface receptors. Cells were then incubated with the indicated concentration of ligand before washing in PBS/0.04% EDTA to remove any remaining surface antibody. Remaining fluorescence was then measured using flow cytometry on either a BD FACScalibur or Attune, recording 5000 gated events. […] As a control, some samples were left untreated, and “strip only” was measured as a readout of constitutive endocytosis, and this value was subtracted from the data. Vehicle control (0.1% DMSO) had no effect on internalization of receptors.
# as §2
# [6] = biological target: T2, Mm_Fpr2; assay: as above; assay type: cell-based; set-up: Emax: dose or concentration left out as unconfirmed
# Method: as §4, §2
# [7] = system: formyl peptide receptor family (Hs_FPR1, Hs_FPR2, Mm_Fpr1, Mm_Fpr2); assay: Summary of main findings: receptor subtype selectivity and ligand bias across all readouts; set-up: species or system human and mouse
# Excerpt: To determine ligand bias, a reference ligand is required, that is, “balanced” for the pathways tested.[37] […] We then used measurements of the activity ratio (Log (Emax/EC50)) for each receptor, ligand, and pathway in an attempt to observe any ligand bias (Fig. 6).
# [8] = biological target: T1, Mm_Fpr1; assay: Competition binding of fluorescent WKYMVm, flow cytometry; conditions: for Max Comp (%): maximum proportion of competition with 10 nM K(5/6-FAM)-WKYMVm
# Method: (§5) Mean cell fluorescence was then measured for 5000 cells by flow cytometry using either a BD FACScalibur or BD Attune.
# as §2
# [9] = biological target: T2, Mm_Fpr2; assay: as above; conditions: mean, ND = no competition observed
# Method: as §5, §2
# [10] = biological target: T1, Mm_Fpr1; assay: BRET receptor-RLuc8 interaction with Venus-mGsi; assay type: cell-based
# Method: as §1, §2
# [11] = biological target: T2, Mm_Fpr2; assay: BRET receptor-RLuc8 interaction with Venus-mGsi; assay type: cell-based
# Method: as §1, §2
# [12] = biological target: T3, Hs_FPR2 (Homo sapiens, UniProt P25090); assay: ERK1/2 phosphorylation by Western blotting; assay type: cell-based
# T3 construct: expressed in transfected cells
# T3 sequence (P25090 1-351): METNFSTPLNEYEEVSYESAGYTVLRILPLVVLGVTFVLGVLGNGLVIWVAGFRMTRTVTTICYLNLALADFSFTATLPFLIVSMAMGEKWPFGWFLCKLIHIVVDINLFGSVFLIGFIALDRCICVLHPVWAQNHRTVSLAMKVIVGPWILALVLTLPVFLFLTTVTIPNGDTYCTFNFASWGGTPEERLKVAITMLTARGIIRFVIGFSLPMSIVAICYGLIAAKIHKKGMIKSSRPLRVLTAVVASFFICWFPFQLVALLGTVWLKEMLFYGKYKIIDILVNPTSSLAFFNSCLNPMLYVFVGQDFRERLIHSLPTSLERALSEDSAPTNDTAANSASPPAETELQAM
# Method: as §3, §2
# [13] = biological target: T3, Hs_FPR2; assay: Competition binding of fluorescent WKYMVm, flow cytometry; conditions: maximum proportion of competition with 10 nM K(5/6-FAM)-WKYMVm; mean; ND = no competition observed
# Method: as §5, §2
# [14] = biological target: T3, Hs_FPR2; assay: BRET receptor-RLuc8 interaction with Venus-mGsi; assay type: cell-based
# Method: as §1, §2
# [15] = biological target: T3, Hs_FPR2; assay: Internalization of FLAG-tagged receptors by flow cytometry; assay type: cell-based; set-up: Emax: dose or concentration left out as unconfirmed
# Method: Internalization of FPRs was measured by flow cytometry.[30] Briefly, cells were incubated with Alexa Fluor 657 conjugated M1 antiflag antibody (Sigma-Aldrich Cat# F3040, RRID:AB_439712) for 30 minutes at 37 °C to label surface receptors. Cells were then incubated with the indicated concentration of ligand before washing in PBS/0.04% EDTA to remove any remaining surface antibody. Remaining fluorescence was then measured using flow cytometry on either a BD FACScalibur or Attune, recording 5000 gated events. […] As a control, some samples were left untreated, and “strip only” was measured as a readout of constitutive endocytosis, and this value was subtracted from the data.
# as §2
# [16] = Arrestin 3 BRET, % of response to 1 μM WKYMVm, mean, ND = no interaction detected
# [17] = log of EC50, phosphorylation of ERK1/2, HEK293 stable cells, mean, ND = no pERK signal detected
# [18] = mean, ND = no competition observed
# [19] = log of EC50, mGsi BRET, HEK293 transient, 10 min, mean, ND = no interaction detected
# [20] = mGsi BRET, % of response to 1 μM WKYMVm, mean, ND = no interaction detected
smiles,measurement,setting,value
CC(C)c1c(NC(=O)Nc2ccc(Cl)cc2)c(=O)n(-c2ccccc2)n1C [TC-FPR43],Emax (%),[1]; [16],39.42%
same,Emax (%),[2]; [16],73.06%
same,Log EC50 (M),"[2]; log of EC50, Arrestin 3 BRET, HEK293 transient, 10 min, mean, ND = no interaction detected",−6.20 M
same,Log EC50 (M),[3]; [17],−7.589 M
same,Emax (%),"[3]; phospho-ERK, % of 1 μM WKYMVm, mean, ND = no pERK signal detected",78.28%
same,Log EC50 (M),"[4]; log of EC50, phosphorylation of ERK1/2, HEK293 stable cells",−6.775 M
same,Emax (%),"[4]; phospho-ERK, % of 1 μM WKYMVm",147.8%
same,"Emax (%), internalization, Mean","[5]; % of internalization to WKYMVm (1 mM in legend, 1 μM in text), Mm_Fpr1, 30 minutes, ND denotes no internalization measured",95.95%
same,"Log EC50 (M), internalization, Mean","[5]; Log EC50, HEK293 stably expressing FLAG-Mm_Fpr1, ligand 30 minutes, ND denotes no internalization measured",−6.155 M
same,agonist-induced internalization (words),"[5]; Mm_Fpr1, 30 min, relative to 1 μM WKYMVm",partial agonists
same,"Emax (%), internalization, Mean","[6]; % of internalization to WKYMVm (1 mM in legend, 1 μM in text), Mm_Fpr2, 30 minutes",42.90%
same,"Log EC50 (M), internalization, Mean","[6]; Log EC50, HEK293 stably expressing FLAG-Mm_Fpr2, ligand 30 minutes",−7.063 M
same,agonist-induced internalization (words),"[6]; Mm_Fpr2, 30 min, relative to 1 μM WKYMVm",partial agonists
same,Bias,"[7]; summary grade of ligand bias relative to WKYMVm, key not given",No
same,Notes,"[7]; summary of main findings, in words",Partial/weak only
same,Log IC50 (M),"[8]; log of IC50, competition with 10 nM K(5/6-FAM)-WKYMVm, HEK293 stable cells, on ice 90 min, mean, ND = no competition observed",−5.926 M
same,Max Comp (%),[8]; [18],61.39%
same,Log IC50 (M),"[9]; log of IC50, competition with 10 nM K(5/6-FAM)-WKYMVm, HEK293 stable cells, on ice 90 min",−6.16 M
same,Max Comp (%),[9]; maximum proportion of competition with 10 nM K(5/6-FAM)-WKYMVm,29.56%
same,Log EC50 (M),[10]; [19],−7.09 M
same,Emax (%),[10]; [20],12.62%
same,Log EC50 (M),[11]; [19],−6.19 M
same,Emax (%),[11]; [20],73.16%
"CSCC[C@H](NC=O)C(=O)N[C@@H](CC(C)C)C(=O)N[C@@H](Cc1ccccc1)C(=O)O [fMLF, fMet-Leu-Phe]",EC50,[1],20.9 µM
same,Emax,[1],83.4%
same,EC50,[2],19.5 µM
same,Emax,[2],22.7%
same,Emax,[3],72.7%
same,EC50,[3]; [17],2.27 µM
same,Emax,[12],40.2%
same,EC50,[5],4.48 µM
same,Emax,[5],92.5%
same,Emax,[6],54.4%
same,IC50,[8],3.18 µM
same,Max Comp (%),[8]; [18],45.65%
same,Max Comp (%),[13],3.4%
same,EC50,[10],11.7 µM
same,Emax,[10],59.3%
same,Emax,[14],61.7%
same,EC50,[11],26.3 µM
same,Emax,[11],13.2%
same,Emax,[15],0.343%
